The text below walks through data of the NIST ThermoML archive (doi:10.1021/je400260c).

Numbers after ± are expanded uncertainties.

For this series the following is noted: Crystal; DTA.
For `CCCCCCCCCCCC(=O)O` [dodecanoic acid], the Normal melting temperature turned out to be 44.6 ± 0.9 °C.
With `CCCCCCCCCCCCCCCC(=O)O` [hexadecanoic acid], the Normal melting temperature was determined as 63 ± 1.1 °C.
As for `CCCCCCCCCCCCCCCCCC(=O)O` [octadecanoic acid], the Normal melting temperature stood at 69.8 ± 0.5 °C.
`CCCCCCCCCCCCCC(=O)O` [tetradecanoic acid]: the Normal melting temperature was 54.4 ± 0.5 °C.
